This experiment deals with P388 leukemia ip, CD2F1 mice, survival T/C. Briefly: NCI In Vivo Anticancer Drug Screen. Data for tumor model P388 Leukemia (intraperitoneal) in CD2F1 (CDF1) mice. Particulars: endpoint: median survival time, higher = longer survival. The essentials:
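Mice carrying the transplanted tumor received test compound or vehicle. Survival was recorded in each group, and the value is the treated-group measurement divided by that of the vehicle-treated control group.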

Where [1] appears, read: dose: 60.0 mg/kg/injection, schedule: Q01DX005 (ip), vehicle: saline with Tween-80.
[2] abbreviates: dose: 25.0 mg/kg/injection, schedule: Q01DX009 (ip), vehicle: saline with Tween-80.
[3] abbreviates: dose: 50.0 mg/kg/injection, schedule: Q01DX009 (ip), vehicle: saline with Tween-80.
Where [4] appears, read: dose: 100.0 mg/kg/injection, schedule: Q01DX009 (ip), vehicle: saline with Tween-80.
Setting [5] is: dose: 200.0 mg/kg/injection, schedule: Q01DX009 (ip), vehicle: saline with Tween-80.
[6] abbreviates: dose: 100.0 mg/kg/injection, schedule: Q01DX009 (ip), vehicle: Klucel (hydroxypropylcellulose) (HPC).
Setting [7] is: dose: 200.0 mg/kg/injection, schedule: Q01DX009 (ip), vehicle: Klucel (hydroxypropylcellulose) (HPC).
[8] abbreviates: dose: 50.0 mg/kg/injection, schedule: Q01DX009 (ip), vehicle: Klucel (hydroxypropylcellulose) (HPC).

Several values for one entry are separate records, joined by “and”; a condition that tells them apart may be missing. Equal values may be shown once. Inconclusive results and toxic doses are left out.

For the compound `CC1CCCC2C(c3ccccc3)OCN12` (stereo unspecified), the T/C by setting is: (dose: 50.0 mg/kg/injection, schedule: Q01DX005 (ip), vehicle: saline) 108 % of control; (dose: 100.0 mg/kg/injection, schedule: Q01DX005 (ip), vehicle: saline) 111 % of control; (dose: 200.0 mg/kg/injection, schedule: Q01DX005 (ip), vehicle: saline) 109 % of control.
As to `COc1cccc(-c2nc(-c3ccccc3)nc(N(C)C)n2)c1O`, the T/C (dose: 60.0 mg/kg/injection, schedule: Q01DX005 (ip), vehicle: Klucel (hydroxypropylcellulose) (HPC)) is 98 % of control and the T/C (dose: 120.0 mg/kg/injection, schedule: Q01DX005 (ip), vehicle: Klucel (hydroxypropylcellulose) (HPC)) was 92 % of control.
Turning to `CC(=O)OCC1OC(OC2=C(CC=C(C)C)C(=O)c3ccccc3C2=O)C(OC(C)=O)C(OC(C)=O)C1OC(C)=O` (stereo unspecified), the T/C (dose: 25.0 mg/kg/injection, schedule: Q04DX003 (ip), vehicle: saline with Tween-80) was 100 % of control; the T/C (dose: 50.0 mg/kg/injection, schedule: Q04DX003 (ip), vehicle: saline with Tween-80) was 102 % of control; the T/C (dose: 100.0 mg/kg/injection, schedule: Q04DX003 (ip), vehicle: saline with Tween-80) was 94 % of control; the T/C (dose: 200.0 mg/kg/injection, schedule: Q04DX003 (ip), vehicle: saline with Tween-80) was 114 % of control.
Take `O=[N+]([O-])c1cccc(/C=N/NS(=O)(=O)c2ccc(F)cc2)c1O`: the T/C under setting [1] was 95 % of control; the T/C (dose: 120.0 mg/kg/injection, schedule: Q01DX005 (ip), vehicle: saline with Tween-80) is 93 % of control; the T/C (dose: 240.0 mg/kg/injection, schedule: Q01DX005 (ip), vehicle: saline with Tween-80) is 106 % of control.
Take `CCOC(CN=Cc1cc(C)c2sc3ccccc3c2c1C)OCC`: the T/C was 110 % of control under setting [2], 103 % of control under setting [3], 108 % of control under setting [4] and 111 % of control under setting [5].
With `CCOC(=O)c1ccc(NC(C)=O)cc1`, the T/C is 100 % of control under setting [6]; 107 % of control under setting [7]; 112 % of control (dose: 400.0 mg/kg/injection, schedule: Q01DX009 (ip), vehicle: Klucel (hydroxypropylcellulose) (HPC)).
As for `CNC(=O)NCc1cccnc1`, the T/C runs as follows: (dose: 60.0 mg/kg/injection, schedule: Q01DX005 (ip), vehicle: saline) 107 % of control; (dose: 120.0 mg/kg/injection, schedule: Q01DX005 (ip), vehicle: saline) 103 % of control; (dose: 240.0 mg/kg/injection, schedule: Q01DX005 (ip), vehicle: saline) 99 % of control.
As for `CC1(c2cccc(N(CCCl)CCCl)c2)NC(=O)NC1=O` (stereo unspecified), the T/C is 166 % of control under setting [2]; 184 % of control and 204 % of control under setting [3]; 90 % of control under setting [4].
In the case of `CCOC(=O)C(=O)Nc1c(C(=O)OC)cc(C)c(C)c1C#N`, the T/C was 93 % of control under setting [8], 94 % of control under setting [6] and 93 % of control under setting [7].
On to `N#Cc1ccc(NN=NCCCl)cc1`, for which the T/C is, setting by setting: (dose: 12.5 mg/kg/injection, schedule: Q01DX009 (ip), vehicle: distilled water + Tween-80) 114 % of control; (dose: 12.5 mg/kg/injection, schedule: Q01DX009 (ip), vehicle: distilled water + alcohol) 95 % of control; (dose: 25.0 mg/kg/injection, schedule: Q01DX009 (ip), vehicle: distilled water + alcohol) 91 % of control; (dose: 50.0 mg/kg/injection, schedule: Q01DX009 (ip), vehicle: distilled water + alcohol) 97 % of control; (dose: 100.0 mg/kg/injection, schedule: Q01DX009 (ip), vehicle: distilled water + Tween-80) 87 % of control; (dose: 100.0 mg/kg/injection, schedule: Q01DX009 (ip), vehicle: distilled water + alcohol) 88 % of control.
In the case of `COC(=O)CC(C(=O)CSC(S(=O)(=O)c1ccccc1)S(=O)(=O)c1ccccc1)C(=O)OC` (stereo unspecified), the T/C was 99 % of control (dose: 50.0 mg/kg/injection, schedule: Q01DX005 (ip), vehicle: Klucel (hydroxypropylcellulose) (HPC)); 101 % of control (dose: 100.0 mg/kg/injection, schedule: Q01DX005 (ip), vehicle: Klucel (hydroxypropylcellulose) (HPC)); 100 % of control (dose: 200.0 mg/kg/injection, schedule: Q01DX005 (ip), vehicle: Klucel (hydroxypropylcellulose) (HPC)).
As to `CSc1cccc(NC(=S)NN/C(=N/S(=O)(=O)c2ccccc2)N2CCCC2)c1`, the T/C is, setting by setting: under setting [8], 102 % of control; under setting [6], 101 % of control; under setting [7], 99 % of control.
`NC(=S)c1ccc(C=Nc2ccc(C(N)=S)cc2)cc1`: the T/C by setting is: (dose: 100.0 mg/kg/injection, schedule: Q01DX001 (ip), vehicle: Klucel (hydroxypropylcellulose) (HPC)) 87 % of control; (dose: 200.0 mg/kg/injection, schedule: Q01DX001 (ip), vehicle: Klucel (hydroxypropylcellulose) (HPC)) 91 % of control; (dose: 400.0 mg/kg/injection, schedule: Q01DX001 (ip), vehicle: Klucel (hydroxypropylcellulose) (HPC)) 88 % of control.
For `O/N=C/c1cccc(O)c1O`, the T/C runs as follows: (dose: 50.0 mg/kg/injection, schedule: Q01DX005 (ip), vehicle: saline with Tween-80) 96 % of control; (dose: 100.0 mg/kg/injection, schedule: Q01DX005 (ip), vehicle: saline with Tween-80) 107 % of control.
In the case of `CCN(CC)Cc1cc(C)c(O)c(N=Nc2ccc3c4c(cccc24)-c2ccccc2-3)c1C`, the T/C is, setting by setting: under setting [3], 90 % of control; under setting [4], 93 % of control; under setting [5], 89 % of control.
Consider `NS(=O)(=O)c1ccc(NC(=O)Oc2ccc([N+](=O)[O-])cc2)cc1`, for which the T/C (dose: 100.0 mg/kg/injection, schedule: Q01DX001 (ip), vehicle: saline with Tween-80) was 100 % of control; the T/C (dose: 200.0 mg/kg/injection, schedule: Q01DX001 (ip), vehicle: saline with Tween-80) was 100 % of control; the T/C (dose: 400.0 mg/kg/injection, schedule: Q01DX001 (ip), vehicle: saline with Tween-80) is 104 % of control.
Regarding `CO/C=C(\C(=O)OC)c1ccccc1`, the T/C is 100 % of control under setting [8], 106 % of control under setting [6] and 106 % of control under setting [7].
As to `O=C1CCCC2C3CCCN4CCCC(CN12)C34` (stereo unspecified), the T/C was 100 % of control (dose: 3.12 mg/kg/injection, schedule: Q01DX007 (ip), vehicle: carboxymethylcellulose (CMC)); 98 % of control (dose: 5.0 mg/kg/injection, schedule: Q01DX009 (ip), vehicle: saline); 100 % of control (dose: 6.2 mg/kg/injection, schedule: Q01DX007 (ip), vehicle: carboxymethylcellulose (CMC)); 100 % of control (dose: 6.25 mg/kg/injection, schedule: Q01DX007 (ip), vehicle: carboxymethylcellulose (CMC)); 100 % of control and 94 % of control (dose: 10.0 mg/kg/injection, schedule: Q01DX009 (ip), vehicle: saline); 91 % of control (dose: 12.5 mg/kg/injection, schedule: Q01DX007 (ip), vehicle: carboxymethylcellulose (CMC)). The T/C runs as follows: (dose: 20.0 mg/kg/injection, schedule: Q01DX009 (ip), vehicle: saline) 100 % of control and 110 % of control and 95 % of control; (dose: 23.0 mg/kg/injection, schedule: Q01DX007 (ip), vehicle: carboxymethylcellulose (CMC)) 100 % of control; (dose: 25.0 mg/kg/injection, schedule: Q01DX007 (ip), vehicle: carboxymethylcellulose (CMC)) 91 % of control; (dose: 40.0 mg/kg/injection, schedule: Q01DX009 (ip), vehicle: saline) 102 % of control and 117 % of control and 95 % of control; (dose: 80.0 mg/kg/injection, schedule: Q01DX009 (ip), vehicle: saline) 98 % of control and 110 % of control and 122 % of control; (dose: 160.0 mg/kg/injection, schedule: Q01DX009 (ip), vehicle: saline) 102 % of control and 119 % of control.
In the case of `COC(=O)NC[Si](C)(C)C`, the T/C is, setting by setting: (dose: 15.0 mg/kg/injection, schedule: Q01DX005 (ip), vehicle: saline with Tween-80) 105 % of control; (dose: 30.0 mg/kg/injection, schedule: Q01DX005 (ip), vehicle: saline with Tween-80) 106 % of control; under setting [1], 103 % of control.
For the compound `O=C(NC(=S)c1ccc(Br)cc1)Nc1ccc(Cl)c(Cl)c1`, the T/C runs as follows: (dose: 12.5 mg/kg/injection, schedule: Q01DX009 (ip), vehicle: saline with Tween-80) 96 % of control; under setting [2], 98 % of control; under setting [3], 106 % of control.
With `CN(C)c1cccc2c(S(=O)(=O)NCCCCCCCCCCCCN)cccc12`, the T/C (dose: 100.0 mg/kg/injection, schedule: Q01DX001 (ip), vehicle: saline + Tween-80 + alcohol) is 105 % of control.
With `C1CCC2(CC1)SC1(CCCCC1)SC1(CCCCC1)S2`, the T/C by setting is: (dose: 100.0 mg/kg/injection, schedule: Q04DX003 (ip), vehicle: other) 100 % of control; (dose: 200.0 mg/kg/injection, schedule: Q04DX003 (ip), vehicle: other) 90 % of control; (dose: 400.0 mg/kg/injection, schedule: Q04DX003 (ip), vehicle: other) 95 % of control.

(Values after PubChem BioAssay AID330 (DTP/NCI, 2004).)
